Legend:
Type in all cases: physicochemical
[1] = 6 month dry powder stability, Alpha Naphthol content by HPLC
Source text: (§1) NUC-3373 prepared according to Example 3 and Comparative Example 4 was packed into a transparent LDPE bag which was then filled with nitrogen and tied with a strip seal. This bag was then placed into another transparent LDPE bag which was also filled with nitrogen. A silica gel packet was placed between the two bags before the outermost bag was tied with a strip seal. These bags were then placed in a triple laminated sun light barrier bag which was sealed with a heat sealer. The bags were kept in a HDPE container.
(§2) NUC-3373 was initially assayed by HPLC after manufacture (0 months) then after 1 and 2 and/or 3 and 6 months of storage at 2-8° C., 25° C. or 40° C.
The Alpha Naphthol content of the same batches was also determined by HPLC. The levels of the alpha naphthol impurity is a key indicator of stability of the tested material.

[2] = 6 month dry powder stability, HPLC assay
Source text: as §1, §2

[3] = Solution stability, alpha naphthol (0.60 RRT) in DMA:Saline (80:20 v/v); design: 0.60 RRT (Alpha Naphthol): unit not given here; settings: 400 mg/mL in DMA:Saline (80:20 v/v)
Method: Stability data is also provided in Table 4, which compares the levels of alpha naphthol (0.60 RRT) present in solutions of 400 mg/mL NUC-3373, prepared by Example 3 or 4, above, in DMA:Saline (80:20 v/v) at different temperatures measured over set periods of time. The tested solutions are suitable for infusion and injection and the temperatures and times measured are representative of the environments that solutions suitable for infusion and injection would typically be stored in.
In Table 4 the two values provided for each temperature at each time period, separated by “/”, represent different preparations (samples) of that synthesis.

For `C[C@H](NP(=O)(OC[C@H]1O[C@@H](n2cc(F)c(=O)[nH]c2=O)CC1O)Oc1cccc2ccccc12)C(=O)OCc1ccccc1` (stereo partly drawn) [Example 3, Batch 2, 5-fluoro-2′-deoxyuridine-5′-O-[1-naphthyl (benzoxy-L-alaninyl)] phosphate], the “Increase after 6 months, Alpha Naphthol by HPLC” value (“Increase after 6 months” below) ([1]; 2-8 ° C.) was “None”, the “Alpha Naphthol by HPLC (% w/w)” value ([1]; 2-8 ° C., 0 months) was 0.44 % w/w and the “Alpha Naphthol by HPLC (% w/w)” value ([1]; 2-8 ° C., 3 months) was 0.46 % w/w. The “Alpha Naphthol by HPLC (% w/w)” value ([1]; 2-8 ° C., 6 months) was 0.43 % w/w, the “Increase after 6 months” value ([1]; 25 ° C.) was “None” and the “Alpha Naphthol by HPLC (% w/w)” value ([1]; 25 ° C., 0 months) was 0.44 % w/w. The “Alpha Naphthol by HPLC (% w/w)” value ([1]; 25 ° C., 3 months) was 0.45 % w/w, the “Alpha Naphthol by HPLC (% w/w)” value ([1]; 25 ° C., 6 months) was 0.42 % w/w and the “Increase after 6 months” value ([1]; 40 ° C.) was “None”. For the same molecule, the “Alpha Naphthol by HPLC (% w/w)” value ([1]; 40 ° C., 0 months) was 0.44 % w/w, the “Alpha Naphthol by HPLC (% w/w)” value ([1]; 40 ° C., 1 month) was 0.44 % w/w and the “Alpha Naphthol by HPLC (% w/w)” value ([1]; 40 ° C., 2 months) was 0.42 % w/w. For the same molecule, the “Alpha Naphthol by HPLC (% w/w)” value ([1]; 40 ° C., 3 months) was 0.42 % w/w, the “Alpha Naphthol by HPLC (% w/w)” value ([1]; 40 ° C., 6 months) was 0.38 % w/w and the “Decrease after 6 months, HPLC assay” value ([2]; 2-8 ° C.) was “None”. For the same molecule, the “HPLC assay (% w/w on anhydrous and solvent free basis)” value ([2]; 2-8 ° C., 0 months) was 100.2 % w/w, the “HPLC assay (% w/w on anhydrous and solvent free basis)” value ([2]; 2-8 ° C., 3 months) was 101.3 % w/w and the “HPLC assay (% w/w on anhydrous and solvent free basis)” value ([2]; 2-8 ° C., 6 months) was 100.4 % w/w. The “Decrease after 6 months, HPLC assay” value ([2]; 25 ° C.) was “None”, the “HPLC assay (% w/w on anhydrous and solvent free basis)” value ([2]; 25 ° C., 0 months) was 100.2 % w/w and the “HPLC assay (% w/w on anhydrous and solvent free basis)” value ([2]; 25 ° C., 3 months) was 101.1 % w/w. For the same molecule, the “HPLC assay (% w/w on anhydrous and solvent free basis)” value ([2]; 25 ° C., 6 months) was 100.7 % w/w, the “Decrease after 6 months, HPLC assay” value ([2]; 40 ° C.) was “None” and the “HPLC assay (% w/w on anhydrous and solvent free basis)” value ([2]; 40 ° C., 0 months) was 100.2 % w/w. The “HPLC assay (% w/w on anhydrous and solvent free basis)” value ([2]; 40 ° C., 1 month) was 99.7 % w/w, the “HPLC assay (% w/w on anhydrous and solvent free basis)” value ([2]; 40 ° C., 2 months) was 100.9 % w/w and the “HPLC assay (% w/w on anhydrous and solvent free basis)” value ([2]; 40 ° C., 3 months) was 101.5 % w/w. The “HPLC assay (% w/w on anhydrous and solvent free basis)” value ([2]; 40 ° C., 6 months) was 100.4 % w/w, the “0.60 RRT (Alpha Naphthol)” value ([3]; After 1 month at 2-8° C., first preparation (before "/")) was 0.02/0.02 and the “0.60 RRT (Alpha Naphthol)” value ([3]; After 1 month at 2-8° C., second preparation (after "/")) was 0.02/0.02. For the same molecule, the “0.60 RRT (Alpha Naphthol)” value ([3]; After 1 month at 25 ± 5° C., first preparation (before "/")) was 0.04/0.04, the “0.60 RRT (Alpha Naphthol)” value ([3]; After 1 month at 25 ± 5° C., second preparation (after "/")) was 0.04/0.04 and the “0.60 RRT (Alpha Naphthol)” value ([3]; After 3 months at 2-8° C., first preparation (before "/")) was 0.02/0.02. For the same molecule, the “0.60 RRT (Alpha Naphthol)” value ([3]; After 3 months at 2-8° C., second preparation (after "/")) was 0.02/0.02, the “0.60 RRT (Alpha Naphthol)” value ([3]; After 3 months at 25 ± 5° C., first preparation (before "/")) was 0.11/0.11 and the “0.60 RRT (Alpha Naphthol)” value ([3]; After 3 months at 25 ± 5° C., second preparation (after "/")) was 0.11/0.11. For the same molecule, the “0.60 RRT (Alpha Naphthol)” value ([3]; After 6 months at 2-8° C., first preparation (before "/")) was 0.03, the “0.60 RRT (Alpha Naphthol)” value ([3]; After 6 months at 2-8° C., second preparation (after "/")) was 0.02 and the “0.60 RRT (Alpha Naphthol)” value ([3]; After 6 months at 25 ± 5° C., first preparation (before "/")) was 0.34. For the same molecule, the “0.60 RRT (Alpha Naphthol)” value ([3]; After 6 months at 25 ± 5° C., second preparation (after "/")) was 0.35, the “0.60 RRT (Alpha Naphthol)” value ([3]; After 9 months at 2-8° C., first preparation (before "/")) was 0.03/0.03 and the “0.60 RRT (Alpha Naphthol)” value ([3]; After 9 months at 2-8° C., second preparation (after "/")) was 0.03/0.03. The “0.60 RRT (Alpha Naphthol)” value ([3]; After 9 months at 25 ± 5° C., first preparation (before "/")) was 0.89/0.89, the “0.60 RRT (Alpha Naphthol)” value ([3]; After 9 months at 25 ± 5° C., second preparation (after "/")) was 0.89/0.89 and the “0.60 RRT (Alpha Naphthol)” value ([3]; After 12 months at 2-8° C., first preparation (before "/")) was 0.04/0.04. For the same molecule, the “0.60 RRT (Alpha Naphthol)” value ([3]; After 12 months at 2-8° C., second preparation (after "/")) was 0.04/0.04, the “0.60 RRT (Alpha Naphthol)” value ([3]; After 12 months at 25 ± 5° C., first preparation (before "/")) was 1.60/1.60 and the “0.60 RRT (Alpha Naphthol)” value ([3]; After 12 months at 25 ± 5° C., second preparation (after "/")) was 1.60/1.60. For the same molecule, the “0.60 RRT (Alpha Naphthol)” value ([3]; After 15 days at 2-8° C., first preparation (before "/")) was 0.01/0.01, the “0.60 RRT (Alpha Naphthol)” value ([3]; After 15 days at 2-8° C., second preparation (after "/")) was 0.01/0.01 and the “0.60 RRT (Alpha Naphthol)” value ([3]; After 15 days at 25 ± 5° C., first preparation (before "/")) was 0.03. The “0.60 RRT (Alpha Naphthol)” value ([3]; After 15 days at 25 ± 5° C., second preparation (after "/")) was 0.02 and the “0.60 RRT (Alpha Naphthol)” value ([3]; Initial) was 0.01.

Reference: patent US20250296948A1, “SYNTHESIS OF NUCLEOSIDE DERIVATIVES” (Nucana plc, priority 2022, published 2025)
